Measurements as given in the supplement of paper PMC4932681.

Experiments:
BT-474 Tam1 [1] = assay: drug sensitivity score (DSS) (DSS (dimensionless)); higher = more sensitive; extreme values may be limits of the assay; settings: 4-OH-tamoxifen in medium 1 µM; 72 h
Procedure: (§1)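 FIMM FO2B library drugs were tested at 5 concentrations (10,000-fold range) for 72 h, with CellTiter-Glo viability normalised to DMSO and benzethonium chloride controls. The Drug Sensitivity Score (DSS) is computed from the fitted logistic dose-response curve (area-based; 0 = inactive). Resistant lines and the 'in 1µM tamoxifen' arms were tested in 1 µM 4-OH-tamoxifen.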

BT-474 Tam2 [2] = assay: as above; settings: 4-OH-tamoxifen in medium 1 µM; 72 h
Procedure: as §1

BT-474 [3] = assay: as above; settings: 72 h
Procedure: as §1

MCF-7 Tam1 [4] = assay: as above; settings: 4-OH-tamoxifen in medium 1 µM; 72 h
Procedure: as §1

MCF-7 [5] = assay: as above; settings: 72 h
Procedure: as §1

T-47D Tam1 [6] = assay: as above; settings: 4-OH-tamoxifen in medium 1 µM; 72 h
Procedure: as §1

T-47D Tam2 [7] = assay: as above; settings: 4-OH-tamoxifen in medium 1 µM; 72 h
Procedure: as §1

T-47D [8] = assay: as above; settings: 72 h
Procedure: as §1

ZR-75-1 Tam1 [9] = assay: as above; settings: 4-OH-tamoxifen in medium 1 µM; 72 h
Procedure: as §1

ZR-75-1 Tam2 [10] = assay: as above; settings: 4-OH-tamoxifen in medium 1 µM; 72 h
Procedure: as §1

ZR-75-1 [11] = assay: as above; settings: 72 h
Procedure: as §1

BT-474 Tam1 [12] = assay: relative IC50 (midpoint of fitted logistic curve, plateau may be below 50% inhibition; CellTiter-Glo viability); higher = less potent; settings: 4-OH-tamoxifen in medium 1 µM; 72 h
Procedure: (§2)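 FIMM FO2B library drugs were plated at 5 concentrations spanning a 10,000-fold range in 384-well plates. Cells were incubated for 72 h at 37 °C and viability was read by CellTiter-Glo, normalised to DMSO (0% inhibition) and 100 µM benzethonium chloride (100% inhibition). IC50 values come from logistic dose-response fits (Breeze pipeline). Tamoxifen-resistant lines and the 'in 1µM tamoxifen' parental arms were tested in medium with 1 µM 4-OH-tamoxifen.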

BT-474 Tam2 [13] = assay: as above; settings: 4-OH-tamoxifen in medium 1 µM; 72 h
Procedure: as §2

BT-474 [14] = assay: as above; settings: 72 h
Procedure: as §2

MCF-7 Tam1 [15] = assay: as above; settings: 4-OH-tamoxifen in medium 1 µM; 72 h
Procedure: as §2

MCF-7 [16] = assay: as above; settings: 72 h
Procedure: as §2

T-47D Tam1 [17] = assay: as above; settings: 4-OH-tamoxifen in medium 1 µM; 72 h
Procedure: as §2

T-47D [18] = assay: as above; settings: 72 h
Procedure: as §2

ZR-75-1 Tam1 [19] = assay: as above; settings: 4-OH-tamoxifen in medium 1 µM; 72 h
Procedure: as §2

ZR-75-1 Tam2 [20] = assay: as above; settings: 4-OH-tamoxifen in medium 1 µM; 72 h
Procedure: as §2

ZR-75-1 [21] = assay: as above; settings: 72 h
Procedure: as §2

T-47D Tam2 [22] = assay: as above; settings: 4-OH-tamoxifen in medium 1 µM; 72 h
Procedure: as §2

CCCCC/C=C/C=C1/C(=O)C=C[C@@H]1C/C=C\CCCC(=O)O [15D-PGJ2]
> 800 nM: relative IC50 (BT-474 [14]; 4-OH-tamoxifen in medium 0 µM) | relative IC50 (BT-474 [14]; 4-OH-tamoxifen in medium 1 µM) | relative IC50 (T-47D [18]; 4-OH-tamoxifen in medium 0 µM) | relative IC50 (T-47D [18]; 4-OH-tamoxifen in medium 1 µM) | relative IC50 (ZR-75-1 Tam2 [20]) | relative IC50 (ZR-75-1 [21]; 4-OH-tamoxifen in medium 0 µM) | relative IC50 (ZR-75-1 [21]; 4-OH-tamoxifen in medium 1 µM)
0.598: drug sensitivity score (T-47D Tam2 [7])
0: drug sensitivity score (BT-474 Tam1 [1]) | drug sensitivity score (BT-474 Tam2 [2]) | drug sensitivity score (BT-474 [3]; 4-OH-tamoxifen in medium 0 µM) | drug sensitivity score (BT-474 [3]; 4-OH-tamoxifen in medium 1 µM) | drug sensitivity score (MCF-7 Tam1 [4]) | drug sensitivity score (MCF-7 [5]; 4-OH-tamoxifen in medium 0 µM) | drug sensitivity score (MCF-7 [5]; 4-OH-tamoxifen in medium 1 µM) | drug sensitivity score (T-47D Tam1 [6]) | drug sensitivity score (T-47D [8]; 4-OH-tamoxifen in medium 0 µM) | drug sensitivity score (T-47D [8]; 4-OH-tamoxifen in medium 1 µM) | drug sensitivity score (ZR-75-1 Tam1 [9]) | drug sensitivity score (ZR-75-1 Tam2 [10]) | drug sensitivity score (ZR-75-1 [11]; 4-OH-tamoxifen in medium 0 µM) | drug sensitivity score (ZR-75-1 [11]; 4-OH-tamoxifen in medium 1 µM)
> 0.8 µM: relative IC50 (BT-474 Tam1 [12]) | relative IC50 (BT-474 Tam2 [13]) | relative IC50 (MCF-7 Tam1 [15]) | relative IC50 (MCF-7 [16]; 4-OH-tamoxifen in medium 0 µM) | relative IC50 (MCF-7 [16]; 4-OH-tamoxifen in medium 1 µM) | relative IC50 (T-47D Tam1 [17]) | relative IC50 (ZR-75-1 Tam1 [19])

C=C(c1ccc(C(=O)O)cc1)c1cc2c(cc1C)C(C)(C)CCC2(C)C [Bexarotene]
0.925: drug sensitivity score (ZR-75-1 [11]; 4-OH-tamoxifen in medium 1 µM)
0.367: drug sensitivity score (ZR-75-1 [11]; 4-OH-tamoxifen in medium 0 µM)
0: drug sensitivity score (BT-474 Tam1 [1]) | drug sensitivity score (BT-474 Tam2 [2]) | drug sensitivity score (BT-474 [3]; 4-OH-tamoxifen in medium 0 µM) | drug sensitivity score (MCF-7 [5]; 4-OH-tamoxifen in medium 0 µM) | drug sensitivity score (MCF-7 [5]; 4-OH-tamoxifen in medium 1 µM) | drug sensitivity score (T-47D Tam2 [7]) | drug sensitivity score (ZR-75-1 Tam1 [9])
> 10 µM: relative IC50 (BT-474 Tam1 [12]) | relative IC50 (BT-474 Tam2 [13]) | relative IC50 (MCF-7 [16]; 4-OH-tamoxifen in medium 0 µM) | relative IC50 (MCF-7 [16]; 4-OH-tamoxifen in medium 1 µM) | relative IC50 (T-47D Tam2 [22]) | relative IC50 (ZR-75-1 Tam1 [19])
0.69: drug sensitivity score (T-47D [8]; 4-OH-tamoxifen in medium 0 µM)
3.44: drug sensitivity score (T-47D Tam1 [6])
0.973: drug sensitivity score (ZR-75-1 Tam2 [10])
> 10000 nM: relative IC50 (BT-474 [14]; 4-OH-tamoxifen in medium 0 µM)
0.469: drug sensitivity score (T-47D [8]; 4-OH-tamoxifen in medium 1 µM)
0.345: drug sensitivity score (BT-474 [3]; 4-OH-tamoxifen in medium 1 µM)
3.15: drug sensitivity score (MCF-7 Tam1 [4])

CC(O)(CS(=O)(=O)c1ccc(F)cc1)C(=O)Nc1ccc(C#N)c(C(F)(F)F)c1 (stereo not drawn) [Bicalutamide]
0.0904: drug sensitivity score (T-47D Tam2 [7])
> 10 µM: relative IC50 (BT-474 Tam1 [12]) | relative IC50 (BT-474 Tam2 [13]) | relative IC50 (MCF-7 Tam1 [15]) | relative IC50 (MCF-7 [16]; 4-OH-tamoxifen in medium 0 µM) | relative IC50 (MCF-7 [16]; 4-OH-tamoxifen in medium 1 µM) | relative IC50 (T-47D Tam1 [17]) | relative IC50 (ZR-75-1 Tam1 [19])
> 10000 nM: relative IC50 (BT-474 [14]; 4-OH-tamoxifen in medium 0 µM) | relative IC50 (BT-474 [14]; 4-OH-tamoxifen in medium 1 µM) | relative IC50 (T-47D [18]; 4-OH-tamoxifen in medium 0 µM) | relative IC50 (ZR-75-1 Tam2 [20]) | relative IC50 (ZR-75-1 [21]; 4-OH-tamoxifen in medium 0 µM) | relative IC50 (ZR-75-1 [21]; 4-OH-tamoxifen in medium 1 µM)
0: drug sensitivity score (BT-474 Tam1 [1]) | drug sensitivity score (BT-474 Tam2 [2]) | drug sensitivity score (BT-474 [3]; 4-OH-tamoxifen in medium 0 µM) | drug sensitivity score (BT-474 [3]; 4-OH-tamoxifen in medium 1 µM) | drug sensitivity score (MCF-7 Tam1 [4]) | drug sensitivity score (MCF-7 [5]; 4-OH-tamoxifen in medium 0 µM) | drug sensitivity score (MCF-7 [5]; 4-OH-tamoxifen in medium 1 µM) | drug sensitivity score (T-47D Tam1 [6]) | drug sensitivity score (T-47D [8]; 4-OH-tamoxifen in medium 0 µM) | drug sensitivity score (T-47D [8]; 4-OH-tamoxifen in medium 1 µM) | drug sensitivity score (ZR-75-1 Tam1 [9]) | drug sensitivity score (ZR-75-1 Tam2 [10]) | drug sensitivity score (ZR-75-1 [11]; 4-OH-tamoxifen in medium 0 µM) | drug sensitivity score (ZR-75-1 [11]; 4-OH-tamoxifen in medium 1 µM)

CCC/C=C/C=C/C(=O)O[C@H]1/C(=C/C(=O)OC)C[C@H]2C[C@H]([C@@H](C)O)OC(=O)C[C@H](O)C[C@@H]3C[C@H](OC(C)=O)C(C)(C)[C@](O)(C[C@@H]4C/C(=C/C(=O)OC)C[C@H](/C=C/C(C)(C)[C@]1(O)O2)O4)O3 [Bryostatin 1]
> 0.1 µM: relative IC50 (BT-474 Tam1 [12]) | relative IC50 (BT-474 Tam2 [13]) | relative IC50 (T-47D Tam2 [22])
1.73: drug sensitivity score (MCF-7 Tam1 [4])
> 100 nM: relative IC50 (BT-474 [14]; 4-OH-tamoxifen in medium 0 µM) | relative IC50 (BT-474 [14]; 4-OH-tamoxifen in medium 1 µM) | relative IC50 (T-47D [18]; 4-OH-tamoxifen in medium 0 µM) | relative IC50 (T-47D [18]; 4-OH-tamoxifen in medium 1 µM) | relative IC50 (ZR-75-1 Tam2 [20]) | relative IC50 (ZR-75-1 [21]; 4-OH-tamoxifen in medium 1 µM)
0.213: drug sensitivity score (ZR-75-1 [11]; 4-OH-tamoxifen in medium 0 µM)
0.563: drug sensitivity score (MCF-7 [5]; 4-OH-tamoxifen in medium 1 µM)
1.22: drug sensitivity score (MCF-7 [5]; 4-OH-tamoxifen in medium 0 µM)
0: drug sensitivity score (BT-474 Tam1 [1]) | drug sensitivity score (BT-474 Tam2 [2]) | drug sensitivity score (BT-474 [3]; 4-OH-tamoxifen in medium 0 µM) | drug sensitivity score (BT-474 [3]; 4-OH-tamoxifen in medium 1 µM) | drug sensitivity score (T-47D Tam2 [7]) | drug sensitivity score (T-47D [8]; 4-OH-tamoxifen in medium 0 µM) | drug sensitivity score (T-47D [8]; 4-OH-tamoxifen in medium 1 µM) | drug sensitivity score (ZR-75-1 Tam2 [10]) | drug sensitivity score (ZR-75-1 [11]; 4-OH-tamoxifen in medium 1 µM)
1.05: drug sensitivity score (ZR-75-1 Tam1 [9])
0.0014: drug sensitivity score (T-47D Tam1 [6])
